Assay results reported in US4613588A, “Benzaldehyde and 4,6-O-benzylidene-D-glucose for alleviating pain” (Kaken Pharmaceutical Co. Ltd., priority 1984, dated 1986).
Like-named read-outs stand apart in the source and are kept apart here.

Columns and labels:
[1] = biological target: T1, dipeptidylcarboxypeptidase (enkephalinase A) (Macaca fascicularis, UniProt G7NZK8); assay: Enkephalinase A inhibiting effect; type: biochemical; details: read-out: enzyme inhibiting effect on enkephalinase A
T1 construct: releases Tyr-Gly-Gly from [3H]Leu-enkephalin
T1 sequence (G7NZK8 2-750): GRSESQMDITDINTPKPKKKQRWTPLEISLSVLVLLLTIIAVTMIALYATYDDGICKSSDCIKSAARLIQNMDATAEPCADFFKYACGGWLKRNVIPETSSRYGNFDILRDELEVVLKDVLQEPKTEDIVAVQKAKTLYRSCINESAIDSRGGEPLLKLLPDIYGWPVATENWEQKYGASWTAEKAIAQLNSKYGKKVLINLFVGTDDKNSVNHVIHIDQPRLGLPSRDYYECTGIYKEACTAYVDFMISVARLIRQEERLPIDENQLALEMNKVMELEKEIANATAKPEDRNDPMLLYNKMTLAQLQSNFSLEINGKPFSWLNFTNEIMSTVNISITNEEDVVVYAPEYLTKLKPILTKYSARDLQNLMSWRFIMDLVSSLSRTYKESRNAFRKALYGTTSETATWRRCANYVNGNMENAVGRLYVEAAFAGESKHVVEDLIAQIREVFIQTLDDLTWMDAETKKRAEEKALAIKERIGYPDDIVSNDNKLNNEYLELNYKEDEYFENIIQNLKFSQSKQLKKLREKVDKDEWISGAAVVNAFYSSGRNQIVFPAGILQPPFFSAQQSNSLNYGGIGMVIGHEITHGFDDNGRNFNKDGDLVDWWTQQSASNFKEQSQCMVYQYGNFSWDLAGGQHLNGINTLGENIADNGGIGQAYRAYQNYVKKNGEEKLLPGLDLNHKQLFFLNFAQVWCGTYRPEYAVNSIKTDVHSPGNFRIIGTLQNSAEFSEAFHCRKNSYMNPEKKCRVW
Protocol: (§1) The cerebrum of Macaca Fascicularis was chopped using anatomical scissors, 3 volumes that of 25 mM tris-hydrochloric acid buffer (pH 7.7) was added thereto and the mixture homogenized. It was then ultracentrifuged (50,000×g), the supernatant was removed, and the obtained precipitants were treated and washed twice using the same buffer (these precipitates contained enkephalin decomposing enzymes in a form combined to the cell membrane).
(§2) Thereafter, 25 mM tris-hydrochloric acid buffer (pH 7.7) containing 1% of Triton X-100 was added to the precipitates to extract enkephalinase. […]
(§3) The obtained enkephalin decomposing enzymes were analyzed by acrylamide electrophoresis to find that they were single proteins respectively.
(§4) The enzymatic activity of the respective decomposing enzymes obtained above was measured by the qualitative and quantitative analyses of the decomposition products using [^3 H]-enkephalin or enkephalin as a substrate and employing Porapak Q (produced by Water Associates) column method, high-performance liquid chromatography (HPLC), silica gel thin layer autography, etc.
10 μl of 10 μCi [^3 H] […] Tyr-Gly-Gly was determined using a liquid scintillation counter. […]

aminopeptidase = assay: Aminopeptidase (enkephalin decomposing enzyme) inhibiting effect; type: biochemical, Macaca Fascicularis
Protocol: as §1, §2, §3
as §4, with “etc. […]” for “etc.”

[2] = biological target: T2, dipeptidylaminopeptidase (enkephalinase B) (Macaca fascicularis, UniProt A0A7N9C8Y6); assay: Enkephalinase B inhibiting effect; type: biochemical
T2 construct: releases Tyr-Gly from enkephalin
T2 sequence (A0A7N9C8Y6 1-737): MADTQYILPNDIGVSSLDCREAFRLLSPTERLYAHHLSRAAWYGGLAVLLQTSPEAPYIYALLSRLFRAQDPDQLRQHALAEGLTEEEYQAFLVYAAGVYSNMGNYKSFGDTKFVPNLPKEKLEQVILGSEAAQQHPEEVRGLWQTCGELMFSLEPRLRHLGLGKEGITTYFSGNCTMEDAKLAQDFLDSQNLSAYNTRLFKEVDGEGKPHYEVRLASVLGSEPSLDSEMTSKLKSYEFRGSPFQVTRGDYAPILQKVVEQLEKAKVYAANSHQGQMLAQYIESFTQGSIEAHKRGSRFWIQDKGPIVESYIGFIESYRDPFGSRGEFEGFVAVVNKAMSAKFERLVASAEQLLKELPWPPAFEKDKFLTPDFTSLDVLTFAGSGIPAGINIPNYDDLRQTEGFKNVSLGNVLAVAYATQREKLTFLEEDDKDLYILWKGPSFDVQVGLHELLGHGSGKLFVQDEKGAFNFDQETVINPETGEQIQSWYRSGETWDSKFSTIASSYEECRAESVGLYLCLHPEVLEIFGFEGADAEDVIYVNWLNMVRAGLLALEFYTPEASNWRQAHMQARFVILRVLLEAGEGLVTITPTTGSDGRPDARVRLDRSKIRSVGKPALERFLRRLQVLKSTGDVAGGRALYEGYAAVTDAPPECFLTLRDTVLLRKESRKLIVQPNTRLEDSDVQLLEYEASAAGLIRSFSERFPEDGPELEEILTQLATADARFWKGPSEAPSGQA
Protocol: as §1, §2, §3
as §4, with “etc. […]” for “etc.”

[3] = biological target: T3, angiotensin converting enzyme (Macaca fascicularis, UniProt A0A2K5VWQ5); assay: Angiotensin converting enzyme inhibiting effect; type: biochemical
T3 sequence (A0A2K5VWQ5 31-1307): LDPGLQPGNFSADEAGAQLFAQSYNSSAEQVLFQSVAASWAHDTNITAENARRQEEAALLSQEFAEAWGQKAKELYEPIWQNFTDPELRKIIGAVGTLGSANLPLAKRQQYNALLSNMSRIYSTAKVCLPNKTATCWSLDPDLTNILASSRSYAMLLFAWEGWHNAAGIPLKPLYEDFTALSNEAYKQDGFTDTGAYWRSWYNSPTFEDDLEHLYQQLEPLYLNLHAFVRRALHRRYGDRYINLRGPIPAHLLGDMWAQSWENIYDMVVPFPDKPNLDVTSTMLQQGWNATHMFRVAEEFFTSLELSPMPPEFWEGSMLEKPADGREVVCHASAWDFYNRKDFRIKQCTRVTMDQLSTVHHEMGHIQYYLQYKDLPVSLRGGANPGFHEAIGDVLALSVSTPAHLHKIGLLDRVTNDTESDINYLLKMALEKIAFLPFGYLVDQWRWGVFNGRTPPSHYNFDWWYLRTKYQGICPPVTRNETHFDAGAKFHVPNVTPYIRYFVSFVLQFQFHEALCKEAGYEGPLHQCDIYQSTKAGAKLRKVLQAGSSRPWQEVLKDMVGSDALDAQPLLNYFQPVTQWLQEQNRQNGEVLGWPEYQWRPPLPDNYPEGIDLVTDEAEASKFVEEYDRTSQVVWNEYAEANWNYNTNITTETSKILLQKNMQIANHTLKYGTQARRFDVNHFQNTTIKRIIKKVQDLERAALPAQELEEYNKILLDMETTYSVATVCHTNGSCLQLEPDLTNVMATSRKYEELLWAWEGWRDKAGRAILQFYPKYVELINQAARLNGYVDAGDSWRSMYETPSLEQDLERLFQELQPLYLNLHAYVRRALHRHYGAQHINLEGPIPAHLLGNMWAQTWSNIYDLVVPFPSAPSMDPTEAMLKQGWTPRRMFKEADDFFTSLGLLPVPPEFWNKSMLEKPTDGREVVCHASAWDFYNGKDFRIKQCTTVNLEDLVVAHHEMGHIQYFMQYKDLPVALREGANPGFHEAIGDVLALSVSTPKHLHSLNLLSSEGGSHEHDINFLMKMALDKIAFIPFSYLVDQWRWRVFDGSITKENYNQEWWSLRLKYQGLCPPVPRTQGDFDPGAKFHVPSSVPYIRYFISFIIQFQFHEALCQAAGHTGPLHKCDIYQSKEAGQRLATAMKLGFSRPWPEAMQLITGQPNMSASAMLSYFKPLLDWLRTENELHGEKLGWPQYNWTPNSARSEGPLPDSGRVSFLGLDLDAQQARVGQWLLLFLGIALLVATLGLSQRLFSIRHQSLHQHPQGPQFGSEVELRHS
Protocol: as §1, §2, §3
as §4, with “etc. […]” for “etc.”

[4] = Acute toxicity by subcutaneous injection in rats; details: rat, in vivo, sc
From the text: Since both benzaldehyde and 4,6-O-benzylidene-D-glucose are substantially non-toxic a wide dosage range may be administered depending on the severity of the pain experienced. The acute toxicity of benzaldehyde and 4,6-O-benzylidene-D-glucose are 5 g/kg or higher and 4 g/kg or higher, respectively, when measured by subcutaneous injection in rats according to conventional toxicity procedures.

carcinomatous pain = assay: Carcinomatous pain treating tests (clinical examples); type: in vivo, human; details: one patient
Protocol: Further, using benzaldehyde and 4,6-O-benzylidene-D-glucose the following carcinomatous pain treating tests were conducted.
After hospitalization, 25 mg benzaldehyde tablets (enteric tablets containing benzaldehyde prepared in the above-described Formulation Example 5) were administered at a dosage of 5 tablets, 4 times a day.
Since variety of chemotherapeutics were not administered because there was a threat of strong side effects, the sole administration of 4,6-O-benzylidene-D-glucose was started in such a way that 1,200 mg of a freeze dried preparation thereof was dissolved in 100 ml of physiological saline and administered i.v. at a rate of once a day (time required being ca. 10 minutes).

[5] = Japanese Patent Application Laid-Open No. 108027/1977 and No. 70428/1979; cited from earlier work

Structure (SMILES)	inhibition at 1000 µg/mL [1] [%]	enzyme inhibiting effect on aminopeptidase (aminopeptidase; 1 mg/ml)	enzyme inhibiting effect on enkephalinase B ([2]; 1 mg/ml)	enzyme inhibiting effect on angiotensin converting enzyme ([3]; 1 mg/ml)	LD50 ([4]; subcutaneous injection, rats, read-out: acute toxicity) [mg/kg]	pain (subjective symptom) (carcinomatous pain; mandible cancer relapse, 25 mg enteric tablets (Formulation Example 5), 5 tablets 4 times a day, oral, from 5th day)	carcinoma size by X-ray examination (carcinomatous pain; mandible cancer relapse, 25 mg enteric tablets, 5 tablets 4 times a day, oral)	pain (subjective symptom) (carcinomatous pain; mandible cancer relapse, 25 mg enteric tablets, 5 tablets 4 times a day, oral, 7th day)	carcinostatic effect [5]	inhibition at 1200 µg/mL ([1]; 1.2 mg/ml) [%]	enzyme inhibiting effect on aminopeptidase (aminopeptidase; 1.2 mg/ml)	enzyme inhibiting effect on enkephalinase B ([2]; 1.2 mg/ml)	enzyme inhibiting effect on angiotensin converting enzyme ([3]; 1.2 mg/ml)	LD50 [4] [mg/kg]	pain (carcinomatous pain; gastric cancer metastasis to bone, 1,200 mg i.v. once a day, 17th to 18th day)	tumor condition by bone scintillation (carcinomatous pain; gastric cancer metastasis to bone, 1,200 mg i.v. once a day, 26th day, versus before administration)	mobility (carcinomatous pain; gastric cancer metastasis to bone, 1,200 mg i.v. once a day, from 10th day)
O=Cc1ccccc1 [benzaldehyde]	99	did not exhibit an enzyme inhibiting effect	did not exhibit an enzyme inhibiting effect	did not exhibit an enzyme inhibiting effect	≥ 5000	the pain was eased	did not reduce in size	almost no pain	known to have carcinostatic effect								
OC1O[C@@H]2COC(c3ccccc3)O[C@H]2[C@H](O)[C@H]1O (stereo partly drawn) [4,6-O-benzylidene-D-glucose]									known to have carcinostatic effect	81	did not exhibit an enzyme inhibiting effect	did not exhibit an enzyme inhibiting effect	did not exhibit an enzyme inhibiting effect	≥ 4000	the pain almost disappeared	the tumor condition was the same	became able to sit on bed
